# Laboratory results reported in patent US8692023B2, “Sugar metabolism improving composition, and pharmaceutical preparation containing said composition” (Erina Co., Inc., priority 2010, dated 2014).
# Experiments:
# [1] = tested on: db/db diabetes model mouse; experiment: Intraperitoneal glucose tolerance test (IPGTT) in diabetes model mice; assay type: in vivo
# Procedure: Effect on glucose tolerance by nepodin administration was measured by using blood glucose level change after the intraperitoneal administration of nepodin to the diabetes model mice.
# Intraperitoneal glucose tolerance test (IPGTT) was performed on the sixth week after nepodin administration start. At first, the mice of each group were fasted for 16 hours, and then, glucose was intraperitoneally administrated to each mouse at the dose of 2 g/kg.
# Blood samples were obtained from the tail vain of each mouse at the time point of 0 min., 30 min., 60 min., 90 min., 120 min., and 180 min. after the glucose administration. Blood glucose level was determined by using Glucose CII Test Wako (Wako Pure Chemical Industries, Ltd.)
# L6 myotube cells = experiment: Glucose intake by L6 myotube cells (decrease of glucose in culture solution); assay type: cell-based, rat; details: nepodin 10 to 40 μM, 4 hours, versus medium without nepodin
# Procedure: L6 myoblast cells were suspended at concentration of 12.5×10^4 cells/mL in a D-MEM medium with 5.5 mM of glucose concentration to which 10% v/v fetal bovine serum, 100 μg/mL of streptomycin, and 100 U/mL of penicillin G were added.
# The cells were inoculated at the concentration 5×10^4 cells/well (0.4 mL/well) in 24 well multi-plate (NUNC Co., Inc.); then cultured in a 5% CO2 incubator at 37° C. for 11 days. The medium was exchanged every 3 days.
# After 11 days, the culture medium was replaced with filter sterilized Krebs solution (Krebs-Henseleit buffer; pH 7.4, 141 mg/L of MgSO4, […] of KH2PO4, 350 mg/L of KCL, 6,900 mg/L of NaCl, 373 mg/L of CaCl2.2H2O, and 2,100 mg/L of NaHCO3) (KHH buffer) supplemented with 0.1% bovine serum albumin, 10 mM of Hepes, and […] of pyruvate sodium but without glucose to maintain the cells in the 5% CO2 incubator at 37° C. for 2 hours.
# Next, each KHH buffer was prepared: only 11 mM glucose was added, or 11 mM of glucose and nepodin (10 μM, 20 μM, or 40 μM). […]
# Glucose concentrations in the culture solution at the beginning and after 4 hours from the culture start were determined by using a microplate reader (Beckman Coulter, Inc. AD200) and a glucose determination kit (Glucose CII test Wako (Wako Pure Chemical Industries, Ltd.), Catalog number 439-90901). […]
# [2] = Feed intake and body weight gain of diabetes model mice; assay type: in vivo, mouse; details: for Weight gain / Feed intake: diabetes mice
# Procedure: Nepodin was suspended in 0.5% carboxymethylcellulose aqueous solution (Wako Pure Chemical Industries, Ltd.). Male mice of 5 week old, BKS. Cg-+Lerp^db/+Lerp^db/J mouse (db/db diabetes model mouse, hereinafter, it is referred to as “diabetes model mouse”) for a test group (nepodin administration group) were purchased from Charles River Laboratories Japan Inc. Prior to the test, they were maintained for 1 week under the condition of 12 h light/12 h dark at a room temperature approximately 25° C., feeding normal diet. It is considered that db/db mouse also becomes a model for a metabolic syndrome model, because it is obese and has higher levels of variety of lipid. The test group mice were divided into 3 groups: C group (positive control group; n=10) with no nepodin administration; A group (n=6) to which nepodin was administered at the dose of 2 mg/kg/day or 10 mg/kg/day for 5 weeks; and B group (n=6). 0.5% carboxymethylcellulose aqueous solution without nepodin was administered to the negative control group (N group; n=6) and the positive control group (C group) under the same conditions as described above. Feeds and water are freely given to each group.
# [3] = tested on: db/db diabetes model mouse; experiment: Serum TBARS value (anti-oxidizing action) in diabetes model mice; assay type: in vivo; details: groups A and B versus group C
# Procedure: (§1) After the termination of the experiment shown in EXAMPLE 4, the blood samples were obtained from the abdominal aorta of the mice from each group under anesthesia, and they were centrifuged with 1,000×g at room temperature to obtain serum samples. After that, the mice of each group were killed by cervical dislocation to put out of the misery; then organs were excised to use the following experiments.
# TBARS value, an index for anti-oxidizing action, was determined by using a TBARS Assay Kit (ZeptoMetrix Co., Inc.).
# [4] = tested on: db/db diabetes model mouse; experiment: HOMA-IR insulin resistance index in diabetes model mice; assay type: in vivo; details: groups A and B (2 and 10 mg/kg/day) versus group C
# Procedure: as §1
# Serum insulin level of Lewi's insulin-mouse-T (Shibayagi Co., Ltd.) was determined by ELISA (measurement at the wavelengths of 450 nm and 620 nm), according to protocols written in its package insert.
# HOMA-IR (Homeostasis model assessment-Insulin Resistance), which is an index of the insulin resistance, was calculated based on data on both blood glucose and serum insulin, by using following equation. HOMA-IR=(blood glucose×insulin level)/405 (1)
# HOMA-IR values were obtained from both levels of serum blood glucose and serum insulin of the mice in group N (the normal mice), the administration groups A, B, and C. They were used to investigate for the change of the insulin resistant index.
# [5] = tested on: db/db diabetes model mouse; experiment: Fasting blood glucose of diabetes model mice; assay type: in vivo; details: 4 hour fasting, 2 to 4 weeks after administration start, versus no nepodin
# Procedure: Effect of nepodin was evaluated by using fasting blood glucose of model mice (db/db mouse) having diabetes II as an index.
# Nepodin was suspended in 0.5% carboxymethylcellulose aqueous solution (Wako Pure Chemical Industries, Ltd.). Male mice of 5 week old, BKS. Cg-+Lerp^db/+Lerp^db/J mouse (db/db diabetes model mouse, hereinafter, it is referred to as “diabetes model mouse”) for a test group (nepodin administration group) were purchased from Charles River Laboratories Japan Inc. Prior to the test, they were maintained for 1 week under the condition of 12 h light/12 h dark at a room temperature approximately 25° C., feeding normal diet. It is considered that db/db mouse also becomes a model for a metabolic syndrome model, because it is obese and has higher levels of variety of lipid.
# Heterozygous male mice of 5 week old, BKS. Cg-+Dock 7^m/+Lerp^db/J mouse (normal mouse) for a negative control group (without nepodin administration) were purchased from Charles River Japan Inc. Prior to the test, they were maintained as the same condition as those of the test group. […]
# Blood samples were obtained from the tail vein of the mice after 4 hour fasting per week. The blood glucose level was measured by using Glucose CII test Wako (Wako Pure Chemical Industries, Ltd.)
# [6] = tested on: db/db diabetes model mouse; experiment: Liver and serum neutral lipid and cholesterol levels in diabetes model mice; assay type: in vivo
# Source text: as §1
# Livers from the mice of each group were homogenized and total lipid was extracted by using Folch method. Both amounts of neutral lipid and cholesterol in the liver were determined by using LabAssat Tiglyceride (Wako Pure Chemical Industries, Ltd.) and LabAssay Cholesterol (Wako Pure Chemical Industries, Ltd.) Results are shown in FIGS. 7A and 7B.
# The serum neutral lipid (triglyceride) level was determined by using LabAssay Triglyceride (Wako Pure Chemical Industries, Ltd.). The serum cholesterol level was determined by using LabAssay Cholesterol (Wako Pure Chemical Industries, Ltd.).
# [7] = tested on: AMPK (5′ adenosine monophosphate-activated protein kinase); experiment: Phosphorylated AMPK in L6 myotube cells by western blotting; assay type: cell-based, rat; details: nepodin 30 μM, up to 120 minutes
# Procedure: The effect of nepodin administration was decided by determining the amount of a phospholylated AMPK (5′ adenosine monophosphate-activated protein kinase), which was important for glucose metabolism in L6 myotube cells, as an activation index.
# L6 myoblast cells were suspended in D-MEM (5.5 mM of glucose concentration) supplemented with 10% v/v fetal bovine serum, 100 μg/mL of streptomycin, and 100 U/mL of penicillin G so as to become the cell concentration at 12.5×10^4 cells/well.
# L6 myoblast cells were inoculated into a 6 cm diameter dish (FALCON Co., Inc.) (2 mL/well) so as to become the concentration at 5×10^5 cells/well, and cultured in the 5% CO2 incubator at 37° C. for 11 days. The medium was exchanged every 3 days. […]
# The negative control samples were prepared by using the cytolytic buffer to be added to the cells cultured with the medium including DMSO, the solvent of nepodin, at the same amount as nepodin. The negative control sample and the samples were separated by using SDS-PAGE according to the conventional method, and were analyzed by using anti-phosphorylated AMPK antibody and anti-AMPK antibody by the western blotting.
# [8] = nepodin administration groups versus diabetes model group with no administration
smiles,measurement,setting,value
"CC(=O)c1c(C)cc2cccc(O)c2c1O [nepodin, 2-Acetyl-1,8-dihydroxy-3-methyl-napthalene]",area under the curve (AUC) of blood glucose levels,"[1]; B group (10 mg/kg), AUC of C group = 100%, p<0.01",significantly low
same,increase of the blood glucose level after glucose load,"[1]; B group, 10 mg/kg nepodin, sixth week, glucose 2 g/kg i.p. after 16 hours fasting",significantly suppressed
same,glucose intake by L6 myotube cells,L6 myotube cells,dose-dependently improved
same,Weight gain,"[2]; group A, nepodin 2 mg/kg/day",18.7 ± 1.76 g/5 weeks
same,Feed intake,"[2]; group A, nepodin 2 mg/kg/day for 5 weeks",5.26 ± 0.61 g/day
same,Weight gain,"[2]; group B, nepodin 10 mg/kg/day",19.45 ± 2.68 g/5 weeks
same,Feed intake,"[2]; group B, nepodin 10 mg/kg/day for 5 weeks",5.40 ± 0.50 g/day
same,average amount of feed intake and body weight gain versus C group,"[2]; diabetes model mice, A group and B group (2 or 10 mg/kg/day) versus no nepodin",no significant difference
same,serum TBARS value,[3],significantly lower
same,HOMA-IR,[4],significantly lower
same,fasting blood glucose level,[5],significantly lower
same,cholesterol level in the liver,[6]; groups A and B versus group C,significantly lower
same,neutral lipid level in the liver,[6]; groups A and B versus group C,significantly lower
same,serum cholesterol level,[6]; [8],significantly lower
same,serum neutral lipid (triglyceride) level,[6]; [8],significantly lower
same,Phosphorylated AMPK in L6 myotube cells,[7],increased
